Our source for the IC50 values is ChEMBL document CHEMBL1201862, “PubChem BioAssay data set” (2004).

Format in all cases: functional
For assay [1], the target named is T1, Neuropeptides B/W receptor type 1 (Homo sapiens, UniProt P48145). As to the kind of experiment: GPR7 antagonist potency, late-stage follow-up, cell-based, fluorescence, dose response, set 6 (AID 588583).
Assay [2] addresses T2, Melanin-concentrating hormone receptor 1 (Homo sapiens, UniProt Q99705). In words: Late-stage fluorescence-based counterscreen for antagonists of the G-protein coupled receptor 7 (GPR7): cell-based dose response assay to identify antagonists of the melanin-concentrating hormone receptor 1 (MCHR1) Set 6.
The target in assay [3] is T2, Melanin-concentrating hormone receptor 1. In words: Late-stage fluorescence-based counterscreen for antagonists of the G-protein coupled receptor 7 (GPR7): cell-based dose response assay to identify antagonists of the melanin-concentrating hormone receptor 1 (MCHR1) Set 5.
For assay [4], the target named is T1, Neuropeptides B/W receptor type 1. In words: GPR7 antagonist potency, late-stage follow-up, cell-based, fluorescence, dose response, set 5 (AID 588566).

The structures appear in SMILES notation. Activity calls are given as the source filed them. Cut-off read from the data, not from the text of the source: active = IC50 of 10 µM or less and inactive = more.

T1 sequence (P48145 whole entry): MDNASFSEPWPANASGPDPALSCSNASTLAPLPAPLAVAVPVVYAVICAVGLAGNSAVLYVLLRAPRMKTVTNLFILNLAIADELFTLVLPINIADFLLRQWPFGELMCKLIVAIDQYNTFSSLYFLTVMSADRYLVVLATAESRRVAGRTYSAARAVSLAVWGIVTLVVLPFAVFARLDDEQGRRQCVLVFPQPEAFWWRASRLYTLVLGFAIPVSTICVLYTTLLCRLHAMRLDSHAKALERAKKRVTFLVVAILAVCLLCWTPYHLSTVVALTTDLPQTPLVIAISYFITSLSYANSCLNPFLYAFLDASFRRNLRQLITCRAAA
T2 sequence (Q99705 whole entry): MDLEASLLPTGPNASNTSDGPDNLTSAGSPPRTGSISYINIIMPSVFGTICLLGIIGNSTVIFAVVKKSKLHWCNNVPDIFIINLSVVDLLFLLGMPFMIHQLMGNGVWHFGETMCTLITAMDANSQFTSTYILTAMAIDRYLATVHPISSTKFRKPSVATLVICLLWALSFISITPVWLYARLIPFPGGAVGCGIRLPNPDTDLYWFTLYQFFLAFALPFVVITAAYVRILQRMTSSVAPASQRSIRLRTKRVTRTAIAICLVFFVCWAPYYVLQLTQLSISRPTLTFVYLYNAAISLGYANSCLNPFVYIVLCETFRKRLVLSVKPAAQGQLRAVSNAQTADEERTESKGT

In the case of `COc1ccc(Oc2c(Cl)cnn(Cc3ccccc3C(=O)O)c2=O)cc1`, the IC50 in assay [1] and in assay [2] was > 20 µM (inactive) in each case.
Consider `Cn1ccc2ccc(Oc3c(Cl)cnn(Cc4cccc5ccccc45)c3=O)cc21`, for which the IC50 in assay [3] is > 20 µM (inactive); in assay [4], 3.19 µM (active).
